Experiment [1] relates to barnyardgrass (Echinochloa crus-galli L.). In words: Foliar treatment pot test, growth inhibition rate visually observed. It is filed as in vivo. As to conditions: for inhibition at 18.75 g/ha / inhibition at 37.5 g/ha: 8 DAT. As to the method: (§1) Upland field soil was put into a 1/1,000,000 hectare pot, and seeds of various plants (barnyardgrass (Echinochloa crus-galli L.) and velvetleaf (Abutilon theophrasti MEDIC.) were sown. When the respective plants reached predetermined leaf stage, herbicidal compositions in predetermined amounts were diluted with water in an amount corresponding to 300 L/ha and applied for foliar treatment by a small sprayer.
(§2) On the 8 to 14 days after treatment (DAT), the state of growth of the respective plants was visually observed to determine the growth inhibition rate (measured value) in accordance with the following evaluation standard. Further, in accordance with the Colby's formula, the growth inhibition rate (calculated value) was calculated. In Tables, with respect to the benzoylpyrazole compound represented by the formula (I), Compound Nos. in Table 1 are described, and with respect to other compounds, common names are described. […]

In experiment [2] the test system is velvetleaf (Abutilon theophrasti MEDIC.). The experiment is described as above. It is filed as in vivo. Particulars: for inhibition at 18.75 g/ha / inhibition at 37.5 g/ha: 8 DAT. As to the method:
as §1, §2

Where [3] appears, read: 192 h, 2.8 to 3.4 leaf stage, foliar treatment, Table 2-5, read-out: Growth inhibition rate (%) of barnyardgrass, Measured value.
The mark [4] stands for this setting: 192 h, 2.8 to 3.4 leaf stage, foliar treatment, read-out: Growth inhibition rate (%) of barnyardgrass, Measured value.
The mark [5] stands for this setting: 192 h, 3.6 to 4.5 leaf stage, foliar treatment, Table 2-3, read-out: Growth inhibition rate (%) of barnyardgrass, Measured value.
Setting [6] is: 192 h, 3.6 to 4.5 leaf stage, foliar treatment, Table 2-10, read-out: Growth inhibition rate (%) of barnyardgrass, Measured value.
[7] abbreviates: 192 h, 3.6 to 4.5 leaf stage, foliar treatment, Table 2-12, read-out: Growth inhibition rate (%) of barnyardgrass, Measured value.
Setting [8] is: 192 h, 1.8 to 2.4 leaf stage, foliar treatment, Table 2-2, read-out: Growth inhibition rate (%) of velvetleaf, Measured value.
[9] abbreviates: 192 h, 1.8 to 2.4 leaf stage, foliar treatment, Table 2-6, read-out: Growth inhibition rate (%) of velvetleaf, Measured value.
The mark [10] stands for this setting: 192 h, 2.6 to 3.2 leaf stage, foliar treatment, Table 2-4, read-out: Growth inhibition rate (%) of velvetleaf, Measured value.
Setting [11] is: 192 h, 2.6 to 3.2 leaf stage, foliar treatment, Table 2-11, read-out: Growth inhibition rate (%) of velvetleaf, Measured value.
Where [12] appears, read: 192 h, 2.6 to 3.2 leaf stage, foliar treatment, Table 2-13, read-out: Growth inhibition rate (%) of velvetleaf, Measured value.
The mark [13] stands for this setting: 192 h, read-out: Growth inhibition rate (%) of barnyardgrass, Measured value.
The mark [14] stands for this setting: 192 h, read-out: Growth inhibition rate (%) of velvetleaf, Measured value.

Read-outs that look alike come from different tables or passages of the source.

In the case of `CC(C)c1nn(C(=O)NC(C)(C)C)c(=O)n1N` [Amicarbazone], the inhibition at 18.75 g/ha in experiment [1] (setting [3]) is 30%; in experiment [1] (setting [4]) it was 30%; in experiment [1] (setting [5]), 20%; in experiment [1] (setting [6]), 20%; in experiment [1] (setting [7]), 20%; in experiment [2] (setting [8]), 40%. In addition, the inhibition at 18.75 g/ha in experiment [2] (setting [9]) is 40%; in experiment [2] (setting [10]), 50%; in experiment [2] (setting [11]), 50%; in experiment [2] (setting [12]), 50%. In addition, the inhibition at 37.5 g/ha in experiment [1] (setting [3]) came to 50%; in experiment [1] (setting [4]), 50%; in experiment [1] (setting [5]), 25%; in experiment [1] (setting [6]), 25%; in experiment [1] (setting [7]), 25%; in experiment [2] (setting [8]), 45%. For the same molecule, the inhibition at 37.5 g/ha in experiment [2] (setting [9]) was 45%; in experiment [2] (setting [10]), 60%; in experiment [2] (setting [11]), 60%; in experiment [2] (setting [12]), 60%. Moreover, the inhibition at 75 g/ha in experiment [1] (264 h, 75 g/ha, 3.2 to 4.1 leaf stage, 11 DAT, foliar treatment, read-out: Growth inhibition rate (%) of barnyardgrass, Measured value) was found to be 40%; in experiment [1] (336 h, 75 g/ha, 4.2 to 5.3 leaf stage, 14 DAT, foliar treatment, read-out: Growth inhibition rate (%) of barnyardgrass, Measured value) it was 15%; in experiment [2] (336 h, 75 g/ha, 4 to 4.5 leaf stage, 14 DAT, foliar treatment, read-out: Growth inhibition rate (%) of velvetleaf, Measured value) it was 55%. Further, in experiment [1] (264 h, 150 g/ha, 3.2 to 4.1 leaf stage, 11 DAT, foliar treatment, read-out: Growth inhibition rate (%) of barnyardgrass, Measured value), the inhibition at 150 g/ha was 73%. Besides, the inhibition at 30 g/ha came out at 0% in experiment [1] (336 h, 30 g/ha, 4.2 to 5.3 leaf stage, 14 DAT, foliar treatment, read-out: Growth inhibition rate (%) of barnyardgrass, Measured value) and 35% in experiment [2] (336 h, 30 g/ha, 4 to 4.5 leaf stage, 14 DAT, foliar treatment, read-out: Growth inhibition rate (%) of velvetleaf, Measured value). Further, the inhibition at 50 g/ha in experiment [1] (336 h, 50 g/ha, 4.2 to 5.3 leaf stage, 14 DAT, foliar treatment, read-out: Growth inhibition rate (%) of barnyardgrass, Measured value) worked out at 0%; in experiment [2] (336 h, 50 g/ha, 4 to 4.5 leaf stage, 14 DAT, foliar treatment, read-out: Growth inhibition rate (%) of velvetleaf, Measured value) it was 55%.

Consider `CS(=O)(=O)c1ccc(C(=O)C2C(=O)CCCC2=O)c(Cl)c1` [Sulcotrione], for which, in experiment [1] (setting [13]), the inhibition at 75 g/ha came to 40% and the inhibition at 150 g/ha stood at 45%. Further, in experiment [2] (setting [14]), the inhibition at 75 g/ha was 30% and the inhibition at 150 g/ha turned out to be 30%.

As for `Cc1c(C(=O)c2cnn(C)c2O)ccc(S(C)(=O)=O)c1C1=NOCC1` [Topramezone], in experiment [1] (setting [13]), the inhibition at 7 g/ha amounted to 40% and the inhibition at 15 g/ha is 40%. In experiment [2] (setting [14]), the inhibition at 7 g/ha came to 30% and the inhibition at 15 g/ha was 30%.

The values above are taken from US8609591B2, “Herbicidal composition” (Ishihara Sangyo Kaisha, Ltd., priority 2010, dated 2013).
